From patent US8066979B1, “Attractants and repellents for the tropical root weevil Diaprepes Abbreviatus” (The United States of America as represented by the …, priority 2007, dated 2011)

Key:
[1] = tested on: D. abbreviatus male antenna; experiment: Gas chromatography-linked electroantennogram detection (GC-EAD); design: species or system Diaprepes abbreviatus; conditions: for antennal response (EAD) to constituents of citrus leaf headspace: SPME collection of citrus leaf volatiles, HP-5 column
Source text: Gas chromatography-linked electroantennogram detection (GC-EAD): The antenna of the insect was employed as a detector in tandem with a high resolution gas chromatography system (GC, Hewlett Packard, […]) as in Dickens (Dickens, J. C., Agr. Forest Entomol., 1: 47-54 (1999)) to locate biologically active constituents in volatile collections of plants and candidate chemicals. An adult weevil antenna was mounted between two glass capillaries. Silver wires were inserted into the ends of both glass capillaries. One glass capillary filled with 0.1 M NaCl served as recording electrode holding the tip of the flagellum. The other capillary filled with electrode gel (Spectra 360, Parker Laboratories, USA) served as ground electrode holding the proximal end of the pedicel. The antenna was bathed in a humidified air-stream (60% RH, 23±2° C.) delivered at 30 cm/s (Stimulus Controller CS-05, Syntech) via a stainless steel tube (5 mm internal diameter) whose outlet was approximately 0.5 cm from the preparation. The electrophysiological signal was amplified and conditioned prior to storage and analyses using a computer equipped with GC-EAD 2.3 software (Syntech). Samples were injected into the gas chromatograph with a septum-purged packed column injector and a flame ionization detector (FID) at 245° C. equipped with one of the following J&W Scientific capillary columns: stationary phase DB-[…], high polarity, film thickness 0.25 μm, length 30 m, i.d. 0.248 mm or HP-5, low polarity, film thickness 0.25 μm, length 30 m, i.d. 0.251 mm. After an initial temperature of 50° C., which was held for 2 min following injection, the temperature of the GC oven was increased at 15° C./min to 235° C., which was held for 8 min. The enantiomers of linalool present in the odor of citrus were separated for their identification using a β-cyclodextrin column (stationary phase HP-Chiral-20B, mid-polar polarity, film thickness 0.25 μm, length 30 m, i.d. 0.252 mm). Following the injection of the linalool enantiomers, the initial temperature of 50° C. was held for 2 min following injection and then increased at 3° C./min to 180° C. Carrier gas (He) flow was 50 cm/s. The effluent from the column was split using a Gerstel GraphPack-3D/2 splitter with a ratio of approximately 1 part to the FID and 4 parts to the electroantennogram detector (EAD). The latter was swept by the humidified air-stream to the electrophysiological preparation from a heated transfer line (Syntech) at 245° C. Volatiles that elicited responses on the antenna were identified by GC-MS (Dickens, J. C., et al., J. Exp. Biol., 4: 309-314 (2002)).

[2] = tested on: D. abbreviatus antennae; experiment: Electroantennography (EAG) recordings; design: species or system Diaprepes abbreviatus; conditions: for EAGs compared on the same antenna (enantiomer/racemate comparison): n=3, paired Wilcoxon test; for antenna sensory threshold: amount in stimulus cartridge; for Mean EAG of the weevil antenna to the standard: diluted 1000-fold in hexane, mean±SE, n=30; for EAG dose-response curve at the two higher stimulus loads: 10 μg and 100 μg
Experimental: Electroantennography (EAG) recordings: For EAGs, an adult weevil antenna was mounted between two electrodes as described above for GC-EAD recordings. EAGs were analyzed using EAG 2.3 software (Syntech).
The following chemicals were serially diluted (ca. 0.01-100 μg) in hexane and tested separately on the antenna: cis-3-hexen-1-ol, trans-2-hexen-1-ol, (±)-linalool, (R)-(−)-linalool, (R)-(+)-citronellal, (S)-(−)-citronellal, cis-geraniol (nerol), trans-geraniol, cis-citral (neral), trans-citral (geranial), and carvacrol. Citral isomers were tested together in a blend. In order to compare activity of (±)-linalool and (R)-(−)-linalool ([…] was not available) as well as (R)-(+)-citronellal and (S)-(−)-citronellal, the enantiomers were tested alternatively on the same antenna of female and male weevils. Solvents and synthetic chemicals used in this investigation were ≧97% pure and acquired from Aldrich, Fisher Scientific, Fluka, and Sigma. Nomenclature of chemicals in the text follows that employed by NIST (http://webbook.nist.gov/chemistry/). One microliter of each solution was deposited on a small filter paper strip (0.8×2 cm; Whatman) that was inserted into a Pasteur pipette (cartridge) after solvent evaporation. The tip of the pipette was introduced via a hole in the wall of the stainless steel tube at 3 cm from the preparation. An air current (0.5 s duration, 50 cm/s airspeed; Air Velocity Meter 441S, Kurtz Instruments, USA) swept the chemicals evaporating from the filter paper from the cartridge (Stimulus Controller CS-05, Syntech) to the air-stream in which the antenna was bathed. Interstimulus time intervals of 2-3 min allowed for recovery of the antennal receptors. To allow for changes in sensitivity of an antenna preparation over time, stimulation with a standard compound preceded and followed each stimulus tested. A puff of 1 μg of (R)-(−)-linalool served as standard for EAGs with cis-3-hexen-1-ol and trans-2-hexen-1-ol, and 1 μg of cis-3-hexen-1-ol for EAGs with other compounds. A solvent control consisted of 1 μl of hexane on filter paper. EAGs were standardized by calculating the percent response of the experimental odorant relative to the mean of two responses to the standard preceding and following its presentation.
(§1) Statistical analysis: EAGs between (±)-linalool and (R)-(−)-linalool as well as between (R)-(+)-citronellal and (S)-(−)-citronellal on the same antenna were compared using the paired Wilcoxon test (Sokal, R. R., and F. J. Rohlf, Biometry, 3rd ed. Freeman, New York (1995)). Relative and absolute proportions of volatiles released by undamaged and damaged citrus leaves were also compared using the paired Wilcoxon test. Insect choices between test and control T-track olfactometer extremes were assessed for significant differences by the hypothesis on binomial proportions based on the standard normal approximation (Brase, C. H., and C. P. Brase, Understanding statistics, 1983, DC Health and Co, Lexington, Mass.). Other behaviors were analyzed using the paired Wilcoxon test and Chi-square test. Statistical analysis was performed using R (version 2.4.0, Vienna, Austria; Ihaka, R., and R. […], J. Comput. Graph. Stat., 5: 299-314 (1996)).

[3] = tested on: D. abbreviatus adults; experiment: Open T-track dual choice olfactometer behavioral experiments; type: in vivo, Diaprepes abbreviatus; design: unit not given here; conditions: stereotyped behavior in T-track olfactometer
Source text: Behavioral experiments: An open T-track dual choice olfactometer described by Dickens (1999) was modified as follows. A container (diameter 11 cm, height 8 cm) with petrolatum on its border, to prevent the escape of insects that were placed in its interior, was placed at the bottom of the vertical “T”. As D. abbreviatus is reluctant to move for long periods (some times hours) after being manipulated, 20-30 insects of the same sex were placed in the container in order to increase chances of observing insects walking. When more than one insect started to climb the “T” tube, the experiment was discarded. Stereotyped behaviors performed by the weevil were recorded using a video camera (Digital Handycam DCR-TVR30).
The following compounds diluted in 25 μl of mineral oil placed on a 4.25 cm filter paper (No. 2, Whatman, England) in a odour-delivery bottle were tested separately in the olfactometer (doses indicated in parenthesis): (±)-linalool (25 μg), (R)-(+)-citronellal (25 μg), carvacrol (25 μg) and cis-3-hexen-1-ol (25 μg). The following blends were also tested: (±)-linalool (25 μg)+carvacrol (2.5 μg) and (±)-linalool (25 μg)+carvacrol (2.5 μg)+cis-3-hexen-1-ol (25 μg). An equal amount of the mineral oil solvent on filter paper was placed in the other side of the olfactometer. In order to observe the behaviour of insects to solvent alone, mineral oil was placed in both odour-delivery bottles. Responses of forty insects (20 females and 20 males) were recorded for each stimulus.
as §1

[4] = at the injected amounts 1 ng and 10 ng

CC(C)=CCC/C(C)=C\C=O [cis-citral, cis-citral (neral)] was tested, and the “antennal response (EAD) to injected synthetic compound” value [1, 4] was “no responses”.
For C=CC(C)(O)CCC=C(C)C (centres unmarked) [linalool], the “antennal response (EAD) to constituents of citrus leaf headspace” value (“antennal response (EAD) to constituents” for short) [1] was “EAGs were recorded”.
In the case of CC(C)=CCC[C@@H](C)CC=O [(R)-(+)-citronellal], the “EAGs compared on the same antenna (enantiomer/racemate comparison)” value ([2]; females) is reported as “larger than for (S)-(−)-citronellal”, the “EAGs compared on the same antenna (enantiomer/racemate comparison)” value ([2]; males) is reported as “larger than for (S)-(−)-citronellal” and the hesitation ([3]; females) is reported as 95. For the same compound, the reaching ([3]; females) was 62.5, the rectifying ([3]; females) was 15 and the hesitation ([3]; males) was 85. It also gave a reaching ([3]; males) of 52.5 and a rectifying ([3]; males) of 5.
In the case of CC(C)=CCCC(C)=CC=O [citral (cis and trans), citral], the antenna sensory threshold ([2]; females) is reported as “around 0.1 μg” and the antenna sensory threshold ([2]; males) is reported as “around 0.1 μg”.
In the case of CC(C)=CCC/C(C)=C/CO [trans-geraniol], the “antennal response (EAD) to injected synthetic compound” value [1, 4] is reported as “no responses”, the “increase in EAG response from 1 to 10 μg in the stimulus cartridge” value (“increase in EAG response from 1 to 10 μg” below) [2] is reported as “did not share such a pattern” and the “increase in magnitude of EAGs with increments in amount dosed in the stimulus cartridge” value ([2]; females) is reported as “EAG increase was not pronounced”. For the same compound, the antenna sensory threshold ([2]; females) was “around 0.1 μg” and the “increase in magnitude of EAGs with increments in amount dosed in the stimulus cartridge” value ([2]; males) was “no significant increases”.
In the case of CC/C=C\CCO [cis-3-hexen-1-ol], the “antennal response (EAD) to injected synthetic compound” value [1, 4] is reported as “EAGs were recorded”, the “Mean EAG of the weevil antenna to the standard” value [2] is reported as 1.605±0.200 mV and the antenna sensory threshold ([2]; females) is reported as “around 0.1 μg”. For the same compound, the antenna sensory threshold ([2]; males) was “around 0.1 μg”, the hesitation ([3]; females) was 75 and the reaching ([3]; females) was 12.5. The rectifying ([3]; females) was 10, the hesitation ([3]; males) was 85 and the reaching ([3]; males) was 30. For the same compound, the rectifying ([3]; males) was 12.5.
In the case of CC(C)=CCCC(C)CC=O (racemic) [(±)citronellal], the “antennal response (EAD) to injected synthetic compound” value ([1]; 1 ng injected, the lowest dose) is reported as “disappeared” and the “antennal response (EAD) to injected synthetic compound” value ([1]; 10 ng injected) is reported as “persisted”.
With Cc1ccc(C(C)C)cc1O [carvacrol] the “antennal response (EAD) to injected synthetic compound” value [1, 4] was “EAGs were recorded only for the two former chemicals”, the “increase in EAG response from 1 to 10 μg” value [2] was “did not share such a pattern” and the “EAG dose-response curve at the two higher stimulus loads” value ([2]; females) was “reached saturation”. For the same compound, the “increase in EAGs in response to serial dilutions” value ([2]; females, from 0.01 μg to 1 μg) was “more pronounced than for males”, the antenna sensory threshold ([2]; females) was “around 0.1 μg” and the “EAG dose-response curve at the two higher stimulus loads” value ([2]; males) was “continued to increase”. The hesitation ([3]; females) was 90, the reaching ([3]; females) was 45 and the rectifying ([3]; females) was 32.5. For the same compound, the hesitation ([3]; males) was 95, the reaching ([3]; males) was 45 and the rectifying ([3]; males) was 47.5.
For CCC/C=C/CO [trans-2-hexen-1-ol], the “antennal response (EAD) to injected synthetic compound” value [1, 4] was “EAGs were recorded”, the antenna sensory threshold ([2]; females) was “around 0.1 μg” and the antenna sensory threshold ([2]; males) was “around 0.1 μg”.
For C=C[C@](C)(O)CCC=C(C)C [(R)-(−)-linalool], the “Mean EAG of the weevil antenna to the standard” value [2] was 1.750±0.311 mV, the “EAGs compared on the same antenna (enantiomer/racemate comparison)” value ([2]; females) was “did not differ significantly” and the antenna sensory threshold ([2]; females) was “around 0.1 μg”. For the same compound, the “EAGs compared on the same antenna (enantiomer/racemate comparison)” value ([2]; males) was “did not differ significantly” and the antenna sensory threshold ([2]; males) was “around 0.1 μg”.
CC(C)=CCC[C@H](C)CC=O [(S)-(−)-citronellal] was tested, and the antenna sensory threshold ([2]; males) was “around 0.1 μg”.
In the case of CC(C)=CCC/C(C)=C/C=O [trans-citral, trans-citral (geranial)], the “antennal response (EAD) to constituents” value [1] is reported as “EAGs were recorded” and the “antennal response (EAD) to injected synthetic compound” value [1, 4] is reported as “no responses”.
For CC(C)=CCCC(C)CC=O (centres unmarked) [citronellal], the “antennal response (EAD) to constituents” value [1] was “EAGs were recorded”.
For C=CC(C)(O)CCC=C(C)C (racemic) [(±)-linalool], the “antennal response (EAD) to injected synthetic compound” value ([1]; 10 ng injected) was “persisted”, the “EAGs compared on the same antenna (enantiomer/racemate comparison)” value ([2]; females) was “did not differ significantly” and the “EAGs compared on the same antenna (enantiomer/racemate comparison)” value ([2]; males) was “did not differ significantly”. The hesitation ([3]; females) was 80, the reaching ([3]; females) was 30 and the rectifying ([3]; females) was 22.5. It also gave a hesitation ([3]; males) of 82.5, a reaching ([3]; males) of 52.5 and a rectifying ([3]; males) of 25.
In the case of CC(C)=CCC/C(C)=C\CO [nerol, cis-geraniol (nerol)], the “antennal response (EAD) to constituents” value [1] is reported as “EAGs were recorded”, the “antennal response (EAD) to injected synthetic compound” value [1, 4] is reported as “no responses” and the “increase in EAG response from 1 to 10 μg” value [2] is reported as “did not share such a pattern”.
